Reference: patent US9549553B2, “Active compound combinations having insecticidal properties” (BAYER CROPSCIENCE AKTIENGESELLSCHAFT, priority 2013, dated 2017)

Key:
Assay type in all cases: in vivo
[1] = system: two spotted spidermite (Tetranychus urticae); assay: Tetranychus urticae - spray test, OP-resistant (French beans); settings: mortality, 1 g ai/ha
Procedure: (§1) To produce a suitable preparation of active compound, 1 part by weight of active compound is mixed with the stated amount of solvent and emulsifier, and the concentrate is diluted with emulsifier-containing water to the desired concentration. To produce a suitable preparation of a spore suspension the spores are diluted with emulsifier-containing water to the desired concentration.
French beans (Phaseolus vulgaris) which are heavily infested with all stages of the two spotted spidermite (Tetranychus urticae), are sprayed with a preparation of the active ingredient of the desired concentration.
After the specified period of time, mortality in % is determined. 100% means all spider mites have been killed and 0% means none of the spider mites have been killed. The mortality values determined thus are recalculated using the Colby-formula (see sheet 1).

[2] = system: green peach aphid (Myzus persicae); assay: Myzus persicae - spray test, Example C-1 (Chinese cabbage leaf-disks); settings: mortality
Procedure: (§2) To produce a suitable preparation of active compound, 1 part by weight of active compound is mixed with the stated amount of solvent and emulsifier, and the concentrate is diluted with emulsifier-containing water to the desired concentration.
Chinese cabbage (Brassica pekinensis) leaf-disks infected with all instars of the green peach aphid (Myzus persicae) are sprayed with a preparation of the active ingredient of the desired concentration.
After the specified period of time, mortality in % is determined 100% means all aphids have been killed; 0% means none of the aphids have been killed. The mortality values determined thus are recalculated using the Colby-formula (see sheet 1).

[3] = system: mustard beetle larvae (Phaedon cochleariae); assay: Phaedon cochleariae - spray test, Example B-1 (Chinese cabbage leaf-disks); settings: mortality
Procedure: as §1
Chinese cabbage (Brassica pekinensis) leaf-disks are sprayed with a preparation of the active ingredient of the desired concentration. Once dry, the leaf disks are infested with mustard beetle larvae (Phaedon cochleariae).
After the specified period of time, mortality in % is determined. 100% means all beetle larvae have been killed and 0% means none of the beetle larvae have been killed. The mortality values determined thus are recalculated using the Colby-formula (see sheet 1).

[4] = system: larvae of the diamondback moth (Plutella xylostella); assay: Plutella xylostella - spray test (cabbage leaves); settings: mortality
Procedure: as §2, with “concentration Ammonium salt and/or penetration enhancer in a dosage of 1000 ppm are added to the desired concentration if necessary.” for “concentration.”
Cabbage leaves (Brassica oleracea) are treated by being sprayed with the preparation of the active compound of the desired concentration and are infested with larvae of the diamondback moth (Plutella xylostella).
After the specified period of time, the mortality in % is determined. 100% means all the caterpillars have been killed; 0% means none of the caterpillars have been killed. The mortality values determined thus are recalculated using the Colby-formula (see sheet 1).

[5] = system: mustard beetle larvae (Phaedon cochleariae); assay: Phaedon cochleariae - spray test, Example B-2 (cabbage leaves); settings: mortality
Procedure: (§3) Solvent: 7 parts by weight of dimethylformamide
Emulsifier: alkylaryl polyglycol ether
(§4) To produce a suitable preparation of active compound, 1 part by weight of active compound is mixed with the stated amount of solvent and is diluted with water, containing an emulgator concentration of 1000 ppm, to the desired concentration. Further test concentrations are prepared by dilution with emulsifier containing water Ammonium salt and/or penetration enhancer in a dosage of 1000 ppm are added to the desired concentration if necessary.
Cabbage leaves (Brassica oleracea) are treated by being sprayed with the preparation of the active compound of the desired concentration and are infested with mustard beetle larvae (Phaedon cochleariae).
After the specified period of time mortality in % is determined. 100% means all the beetle larvae have been killed and 0% means none of the beetle larvae have been killed. The mortality values determined thus are recalculated using the Colby-formula (see sheet 1).

[6] = system: fall armyworm larvae (Spodoptera frugiperda); assay: Spodoptera frugiperda - spray test (maize leaf sections); settings: mortality
Procedure: as §1, with “preparation of the active compound,” for “preparation of active compound,”
Maize (Zea mais) leaf sections are sprayed with a preparation of the active ingredient of the desired concentration. Once dry, the leaf sections are infested with fall armyworm larvae (Spodoptera frugiperda).
After the specified period of time, mortality in % is determined. 100% means all caterpillars have been killed and 0% means none of the caterpillars have been killed. The mortality values determined thus are recalculated using the Colby-formula (see sheet 1).

[7] = system: green peach aphid (Myzus persicae); assay: Myzus persicae - spray test, Example C-2 (cabbage leaves); settings: mortality, 0.5 ppm
Procedure: as §3
Emulsifier: alkylaryl polyglycolether
as §4
Cabbage leaves (Brassica oleracea) which are heavily infested by the green peach aphid (Myzus persicae) are treated by being sprayed with the preparation of the active compound of the desired concentration.
After the specified period of time, mortality in % is determined 100% means all the aphids have been killed; 0% means none of the aphids have been killed. The mortality values determined thus are recalculated using the Colby-formula (see sheet 1).

CC1(C)[C@H](C(=O)O[C@H](C#N)c2cccc(Oc3ccccc3)c2)[C@@H]1/C=C(\Cl)C(F)(F)F (racemic) [Lambda-Cyhalothrin, lambda-Cyhalothrin]
Efficacy in % after 6d [1]: 0% | Efficacy in % after 6d ([2]; 0.125 g ai/ha): 0% | Efficacy in % after 6d ([3]; 0.25 g ai/ha): 0% | Efficacy in % after 3d ([4]; 1 ppm): 0%

Cc1cc(C(F)(C(F)(F)F)C(F)(F)F)ccc1NC(=O)c1cccc(Cl)c1C(=O)NC(C)(C)C#N [(I-5)]
Efficacy in % after 3d ([5]; 1.2 ppm): 0% | Efficacy in % after 3d ([5]; 4.8 ppm): 50% | Efficacy in % after 6d ([2]; 1.25 g ai/ha): 0% | Efficacy in % after 6d ([2]; 1.5 g ai/ha): 0% | Efficacy in % after 6d ([2]; 15 g ai/ha): 0% | Efficacy in % after 6d ([3]; 2.5 g ai/ha): 0% | Efficacy in % after 6d ([3]; 12 g ai/ha): 0% | Efficacy in % after 6d ([6]; 0.8 g ai/ha): 33% | Efficacy in % after 3d ([4]; 0.25 ppm): 0%

CC1(C)C(C=C(Cl)Cl)C1C(=O)OC(C#N)c1ccc(F)c(Oc2ccccc2)c1 (stereo not drawn) [Beta-Cyfluthrin (II-11), beta-Cyfluthrin]
Efficacy in % after 3d ([5]; 1.2 ppm): 0% | Efficacy in % after 6d ([6]; 0.032 g ai/ha): 0% | Efficacy in % after 6d [7]: 50%

CC1(C)[C@H](C(=O)O[C@H](C#N)c2cccc(Oc3ccccc3)c2)[C@@H]1C=C(Br)Br [Deltamethrin]
Efficacy in % after 6d ([2]; 0.15 g ai/ha): 0% | Efficacy in % after 6d ([6]; 0.25 g ai/ha): 0%
